The results in this text go back to PubChem BioAssay AID1259411 (Chemical Carcinogenesis Research Information System (CCRIS), 2018).

This data set relates to rodent carcinogenicity bioassays, tumor incidence. Nature of the data set: CCRIS carcinogenicity studies. In short, it runs like this:
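NCI-built, expert-reviewed records of carcinogenicity and related test outcomes (mutagenicity, tumor promotion/inhibition) compiled from published and report sources, historical span 1985-2011, not updated.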

The source made the active and inactive calls. No rule for the calls is given here.

Take `CC(=O)Nc1ccc(N=Nc2cc(C)ccc2O)cc1`: the carcinogen call by setting is: (Species: MOUSE, Strain/Sex: B6C3F1/FEMALE, Route: ORAL, Dose: 0, 2500, 5000 PPM IN DIET, Dose: 0, 2500, 5000 PPM IN DIET, Tumor Site: Type of Lesion: LIVER: HEPATOCELLULAR ADENOMA) “active; positive”; (Species: MOUSE, Strain/Sex: B6C3F1/MALE, Route: ORAL, Dose: 0, 2500, 5000 PPM IN DIET, Dose: 0, 2500, 5000 PPM IN DIET) “inactive; negative”; (Species: RAT, Strain/Sex: F344/FEMALE, Route: ORAL, Dose: 0, 5000, 10000 PPM IN DIET, Dose: 0, 5000, 10000 PPM IN DIET) “inactive; negative”; (Species: RAT, Strain/Sex: F344/MALE, Route: ORAL, Dose: 0, 5000, 10000 PPM IN DIET, Dose: 0, 5000, 10000 PPM IN DIET, Tumor Site: Type of Lesion: LIVER: NEOPLASTIC NODULE) “active; positive”.

On to `c1ccc2cc3c(cc2c1)-c1cccc2cccc-3c12`, for which the carcinogen call by setting is: (Species: MOUSE, Route: DERMAL, Tumor Site: Type of Lesion: INTEGUMENTARY SYSTEM (SKIN)) “active; positive”; (Species: RAT, Strain/Sex: OSBORNE-MENDEL/FEMALE, Route: LUNG IMPLANT, Dose: 0, 0.16, 0.83, 4.15 MG IN BEESWAX/TRIOCTANOIN (STUDY DURATION: LIFETIME), Dose: 0, 0.16, 0.83, 4.15 MG IN BEESWAX/TRIOCTANOIN (STUDY DURATION: LIFETIME), Tumor Site: Type of Lesion: LUNG: EPIDERMOID CARCINOMA) “active; positive”.

As to `Cc1cc(-c2ccccc2C)ccc1N=O`, the carcinogen call is, setting by setting: (Species: HAMSTER, Strain/Sex: SYRIAN/FEMALE, Route: SUBCUTANEOUS, Dose: 0.15 MMOL/KG IN PEANUT OIL 1/WK FOR 37 WK (TOTAL DOSE 5.6 MMOL/KG), Tumor Site: Type of Lesion: INJECTION SITE: RHABDOMYOSARCOMA, SPINDLE CELL CARCINOMA, PLEIOMORPHIC SARCOMA) “active; positive”; (Species: HAMSTER, Strain/Sex: SYRIAN/MALE, Route: SUBCUTANEOUS, Dose: 0.15 MMOL/KG IN PEANUT OIL 1/WK FOR 37 WK (TOTAL DOSE 5.6 MMOL/KG), Tumor Site: Type of Lesion: INJECTION SITE: RHABDOMYOSARCOMA, PLEIOMORPHIC SARCOMA) “active; positive”.

In the case of `Cc1nn(C)c(Oc2ccccc2)c1/C=N/OCc1ccc(C(=O)OC(C)(C)C)cc1`, the carcinogen call reads like this: (Species: Mouse, Strain/Sex: ICR (Crj:CD-1)/Female (50/Group), Route: Oral, Dose: 0, 25, 100, 400, 800 ppm (0; 2.4; 10.2; 41.4; 73.1 mg/kg/day) for 18 mo, study duration 18 mo, Dose: 0, 25, 100, 400, 800 ppm (0; 2.4; 10.2; 41.4; 73.1 mg/kg/day) for 18 mo, study duration 18 mo) “inactive; negative”; (Species: Mouse, Strain/Sex: ICR (Crj:CD-1)/Male (50/Group), Route: Oral, Dose: 0, 25, 100, 400, 800 ppm (0; 2.4; 9.5; 38.0; 69.6 mg/kg/day) for 18 mo, study duration 18 mo, Dose: 0, 25, 100, 400, 800 ppm (0; 2.4; 9.5; 38.0; 69.6 mg/kg/day) for 18 mo, study duration 18 mo) “inactive; negative”; (Species: Rat, Strain/Sex: CD/Female (50/Group), Route: Oral, Dose: 0, 10, 25, 75, 150 ppm of 97.2% fenpyroximate (0; 0.49; 1.21; 3.81; 8.01 mg/kg/day) for 104 wk, study duration 104 wk, Dose: 0, 10, 25, 75, 150 ppm of 97.2% fenpyroximate (0; 0.49; 1.21; 3.81; 8.01 mg/kg/day) for 104 wk, study duration 104 wk) “inactive; negative”; (Species: Rat, Strain/Sex: CD/Male (50/Group), Route: Oral, Dose: 0, 10, 25, 75, 150 ppm of 97.2% fenpyroximate (0; 0.40; 0.97; 3.00; 6.20 mg/kg/day) for 104 wk, study duration 104 wk, Dose: 0, 10, 25, 75, 150 ppm of 97.2% fenpyroximate (0; 0.40; 0.97; 3.00; 6.20 mg/kg/day) for 104 wk, study duration 104 wk) “inactive; negative”.

For `c1cc2ccc3ccc4ccc5cccc6c(c1)c2c3c4c56`, the carcinogen call (Species: RAT, Strain/Sex: OSBORNE-MENDEL/FEMALE, Route: LUNG IMPLANT, Dose: 0, 0.16, 0.83, 4.15 MG IN BEESWAX/TRIOCTANOIN (STUDY DURATION: LIFETIME), Dose: 0, 0.16, 0.83, 4.15 MG IN BEESWAX/TRIOCTANOIN (STUDY DURATION: LIFETIME)) is “inactive; negative”.

On to `C=C(Cl)CSC(=S)N(CC)CC`, for which the carcinogen call by setting is: (Species: MOUSE, Strain/Sex: B6C3F1/FEMALE, Route: ORAL, Dose: 0, 908, 1815 PPM TWA, IN DIET FOR 74 WK (STUDY DURATION: 90-91 WK), Dose: 0, 908, 1815 PPM TWA, IN DIET FOR 74 WK (STUDY DURATION: 90-91 WK), Tumor Site: Type of Lesion: MAMMARY GLAND: ADENOCARCINOMA OR SQUAMOUS METAPLASIA) “active; positive”; (Species: MOUSE, Strain/Sex: B6C3F1/MALE, Route: ORAL, Dose: 0, 949, 1897 PPM TWA, IN DIET FOR 74 WK (STUDY DURATION: 91 WK), Dose: 0, 949, 1897 PPM TWA, IN DIET FOR 74 WK (STUDY DURATION: 91 WK), Tumor Site: Type of Lesion: LUNG: ALVEOLAR/BRONCHIOLAR ADENOMA OR ALVEOLAR/BRONCHIOLAR CARCINOMA) “active; positive”; (Species: RAT, Strain/Sex: OSBORNE-MENDEL/FEMALE, Route: ORAL, Dose: 0, 250, 404 PPM TWA, IN DIET FOR 63-78 WK (STUDY DURATION: 104-111 WK), Dose: 0, 250, 404 PPM TWA, IN DIET FOR 63-78 WK (STUDY DURATION: 104-111 WK), Tumor Site: Type of Lesion: MAMMARY GLAND: ADENOCARCINOMA) “active; positive”; (Species: RAT, Strain/Sex: OSBORNE-MENDEL/MALE, Route: ORAL, Dose: 0, 250, 410 PPM TWA, IN DIET FOR 64-78 WK (STUDY DURATION: 103-111 WK), Dose: 0, 250, 410 PPM TWA, IN DIET FOR 64-78 WK (STUDY DURATION: 103-111 WK), Tumor Site: Type of Lesion: STOMACH: PAPILLOMA, SQUAMOUS CELL PAPILLOMA OR SQUAMOUS CELL CARCINOMA) “active; positive”.

Turning to `O=Nc1ccc2ccccc2c1`, the carcinogen call (Species: MOUSE, Strain/Sex: SWISS/MALE, Route: SUBCUTANEOUS, Dose: 100 UG IN GELATIN ON FIRST, THIRD AND FIFTH D OF LIFE, Tumor Site: Type of Lesion: LIVER: HEPATOMA) was “active; positive”.

Take `COc1c(N2C[C@@H]3CCCN[C@@H]3C2)c(F)cc2c(=O)c(C(=O)O)cn(C3CC3)c12`: the carcinogen call (Species: RAT, Strain/Sex: WISTAR/MALE, FEMALE, Route: GAVAGE, Dose: 0, 500 MG/KG BW/D FOR 38 WK (STUDY DURATION: 38 WK)) was “inactive; negative”.
